Assay results reported in US20200163854A1, “LIFE-EXTENDING AGENT, ANTI-AGING AGENT, COSMETIC, AND FOOD/BEVERAGE COMPOSITION” (KYOTO UNIVERSITY, priority 2017, published 2020).
Read-outs that look alike come from different tables or passages of the source.

Key:
[1] = tested on: Drosophila flies, premature aging strain (sod1[n1] mutants), male; conditions: vs control medium
Protocol: Mutants of adult Drosophila flies (male) containing Cu/Zn-SOD with reduced activity due to amino acid substitution (sod1[n1]) were bred in a plastic tube having a diameter of 25 mm, and fed with a simple medium (instant medium) for Drosophila that contains D-proline (D-Pro) at a concentration of 20, 60, 200, or 400 μg/ml, or L-proline (L-Pro) at a concentration of 400 μg/ml, followed by measuring the life span of the flies. […] For the control, a simple medium to which no D-Pro or L-Pro was added was used.
(§1) Mutants of adult Drosophila flies (male) containing Cu/Zn-SOD with reduced activity due to amino acid substitution (sod1[n1]) were bred in a plastic tube having a diameter of 25 mm, and fed with a simple medium (instant medium) for Drosophila that contains D-proline (D-Pro) at a concentration of 400 μg/ml, or D-aspartic acid (D-Asp) at a concentration of 60, 200, or 400 μg/ml, followed by measuring the life span of the flies. […] For the control, a simple medium to which no D-Pro or D-Asp was added was used.
as §1, with “D-hydroxyproline (D-HP)” for “D-aspartic acid (D-Asp)”, “D-HP” for “D-Asp”

[2] = tested on: Menin gene and Bach2 gene mRNA; conditions: 0.2 mg/ml in water, free intake, Day 495; compared to control group or L-proline group
Protocol: (§2) After euthanasia on Day 495, the spleen was removed and ground through a 0.45-μM strainer to prepare a suspension of spleen-derived cells (FIG. 4). After centrifugation at 1000 g for 5 minutes, the supernatant was removed by suction. Thereafter, 2 ml of ammonium chloride hemolytic agent (distilled water containing 8.99 mg/ml of NH4Cl, 1 mg/ml of KHCO3, and 37 μg/ml of EDTA4Na) was added to the cell pellets, followed by suspension. The resulting product was then allowed to stand at room temperature for 2 minutes. Subsequently, 10 ml of RPMI 1640 medium with 10% FBS was added thereto, the mixture was centrifuged at 1000 g for 5 minutes, and the supernatant was removed by suction. Then, 5 ml of RPMI 1640 medium with 10% FBS was added thereto to prepare a cell suspension (spleen-derived mononuclear cells).
Total RNA was extracted from 1×10^5 spleen-derived mononuclear cells of Example 4 using an RNeasy Mini Kit, produced by Qiagen. […] The mRNA levels of the Menin gene and the Bach2 gene were quantified as a ratio relative to the β-actin gene mRNA level, and calculated taking the value of the spleen-derived mononuclear cells of the control group as 1.

[3] = tested on: spleen-derived mononuclear cells (T cells with senescence marker); conditions: 0.2 mg/ml in water, free intake, Day 495; compared to control group or L-proline group
Protocol: as §2
After placing 1×10^6 spleen-derived mononuclear cells of Example 4 into a 1.5-ml Eppendorf tube, centrifugation was performed at 900 g for 5 minutes. Then, the supernatant was removed by suction, and 50 μl of FACS buffer (PBS(−) in which 0.5% BSA, 0.01% NaNO, and 1 mM EDTA were dissolved) was added thereto. Thereafter, incubation was performed on ice for 20 minutes with an FITC-labeled mouse anti-CD27 antibody (NOVUS; NPB-1-44021) and a PE-labeled mouse anti-CD62L antibody (ABGENT; ATB10190). […]

[4] = mixed with feed at 60, 200 or 400 μg/ml

SMILES | life span of aging-promoting adult Drosophila flies ([1]; mixed with feed at 400 μg/ml) | life span of aging-promoting adult Drosophila flies [1, 4] | mRNA expression of the Bach2 gene (ratio to β-actin, control = 1) [2] | mRNA expression of the Menin gene (ratio to β-actin, control = 1) [2] | life span of aging-promoting adult Drosophila flies ([1]; mixed with feed at 20, 60, 200 or 400 μg/ml) | number of T cells with a senescence marker of CD62-negative or CD27-negative [3]
O=C(O)[C@@H]1CCCN1 [L-proline, reference compound] | no effect | – | – | – | – | –
O=C(O)[C@H]1C[C@H](O)CN1 [D-hydroxyproline] | extends the life span | extended the life span of Drosophila flies in a concentration-dependent manner | – | – | – | –
O=C(O)[C@H]1CCCN1 [D-proline] | significantly higher effect | – | higher mRNA expression | higher mRNA expression | dose-dependently extends the life span | significantly reduced number
N[C@H](CC(=O)O)C(=O)O [D-aspartic acid] | extends the life span | extended the life span of Drosophila flies in a concentration-dependent manner | – | – | – | –
